Test results: the supplement of paper PMC4932681

Key:
Test in all cases: viability inhibition at highest dose (% inhibition); higher = more growth inhibition
[1] = tested on: T-47D Tam1; conditions: 4-OH-tamoxifen in medium 1 µM; 72 h
Protocol: (§1)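 Percent inhibition of viability (CellTiter-Glo, 72 h) at the highest tested concentration (D5), normalised to DMSO (0%) and 100 µM benzethonium chloride (100%). Resistant lines and the 'in 1µM tamoxifen' arms were tested in 1 µM 4-OH-tamoxifen.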

[2] = tested on: MCF-7; conditions: 72 h
Protocol: as §1

[3] = tested on: ZR-75-1 Tam1; conditions: 4-OH-tamoxifen in medium 1 µM; 72 h
Protocol: as §1

[4] = tested on: BT-474 Tam1; conditions: 4-OH-tamoxifen in medium 1 µM; 72 h
Protocol: as §1

[5] = tested on: ZR-75-1 Tam2; conditions: 4-OH-tamoxifen in medium 1 µM; 72 h
Protocol: as §1

[6] = tested on: MCF-7 Tam1; conditions: 4-OH-tamoxifen in medium 1 µM; 72 h
Protocol: as §1

[7] = tested on: BT-474 Tam2; conditions: 4-OH-tamoxifen in medium 1 µM; 72 h
Protocol: as §1

[8] = tested on: ZR-75-1; conditions: 72 h
Protocol: as §1

[9] = tested on: T-47D Tam2; conditions: 4-OH-tamoxifen in medium 1 µM; 72 h
Protocol: as §1

[10] = tested on: T-47D; conditions: 72 h
Protocol: as §1

[11] = tested on: BT-474; conditions: 72 h
Protocol: as §1

Nc1cc(C(F)(F)F)c(-c2cc(N3CCOCC3)nc(N3CCOCC3)n2)cn1 [Buparlisib (BKM-120)] (drug 10000 nM)
viability inhibition at highest dose [1]: 70.7
viability inhibition at highest dose ([2]; 4-OH-tamoxifen in medium 0 µM): 72.8
viability inhibition at highest dose ([2]; 4-OH-tamoxifen in medium 1 µM): 72.2
viability inhibition at highest dose [3]: 57
viability inhibition at highest dose [4]: 93.8
viability inhibition at highest dose [5]: 61.8
viability inhibition at highest dose [6]: 42.8
viability inhibition at highest dose [7]: 89.9
viability inhibition at highest dose ([8]; 4-OH-tamoxifen in medium 0 µM): 57.9
viability inhibition at highest dose ([8]; 4-OH-tamoxifen in medium 1 µM): 48.8
viability inhibition at highest dose [9]: 71.3
viability inhibition at highest dose ([10]; 4-OH-tamoxifen in medium 0 µM): 75.8
viability inhibition at highest dose ([10]; 4-OH-tamoxifen in medium 1 µM): 77.6
viability inhibition at highest dose ([11]; 4-OH-tamoxifen in medium 0 µM): 64.5
viability inhibition at highest dose ([11]; 4-OH-tamoxifen in medium 1 µM): 88.6

CS(=O)(=O)OCCCCOS(C)(=O)=O [Busulfan] (drug 100000 nM)
viability inhibition at highest dose [1]: 1.25
viability inhibition at highest dose ([2]; 4-OH-tamoxifen in medium 0 µM): -5.52
viability inhibition at highest dose ([2]; 4-OH-tamoxifen in medium 1 µM): 10.5
viability inhibition at highest dose [3]: -5.35
viability inhibition at highest dose [4]: -2.76
viability inhibition at highest dose [5]: -11.6
viability inhibition at highest dose [6]: -1.89
viability inhibition at highest dose [7]: 1
viability inhibition at highest dose ([8]; 4-OH-tamoxifen in medium 0 µM): 1.38
viability inhibition at highest dose ([8]; 4-OH-tamoxifen in medium 1 µM): -1.26
viability inhibition at highest dose [9]: 6.32
viability inhibition at highest dose ([10]; 4-OH-tamoxifen in medium 0 µM): -1.41
viability inhibition at highest dose ([10]; 4-OH-tamoxifen in medium 1 µM): -0.37
viability inhibition at highest dose ([11]; 4-OH-tamoxifen in medium 0 µM): 1.99
viability inhibition at highest dose ([11]; 4-OH-tamoxifen in medium 1 µM): 8.07

CC[C@H](Nc1ncnc2[nH]cnc12)c1nc2cccc(F)c2c(=O)n1-c1ccccc1 [CAL-101] (drug 10000 nM)
viability inhibition at highest dose [1]: 24.5
viability inhibition at highest dose ([2]; 4-OH-tamoxifen in medium 0 µM): 22.4
viability inhibition at highest dose ([2]; 4-OH-tamoxifen in medium 1 µM): 21.3
viability inhibition at highest dose [3]: 50.8
viability inhibition at highest dose [4]: 8.87
viability inhibition at highest dose [5]: 57.3
viability inhibition at highest dose [6]: -0.638
viability inhibition at highest dose [7]: 5.84
viability inhibition at highest dose ([8]; 4-OH-tamoxifen in medium 0 µM): 45.9
viability inhibition at highest dose ([8]; 4-OH-tamoxifen in medium 1 µM): 45
viability inhibition at highest dose [9]: 33.6
viability inhibition at highest dose ([10]; 4-OH-tamoxifen in medium 0 µM): 15.2
viability inhibition at highest dose ([10]; 4-OH-tamoxifen in medium 1 µM): 13.7
viability inhibition at highest dose ([11]; 4-OH-tamoxifen in medium 0 µM): 4.44
viability inhibition at highest dose ([11]; 4-OH-tamoxifen in medium 1 µM): 17

C#Cc1cccc(Nc2ncnc3cc(OC)c(OCCCCCCC(=O)NO)cc23)c1 [CUDC-101] (drug 10000 nM)
viability inhibition at highest dose [1]: 88.4
viability inhibition at highest dose ([2]; 4-OH-tamoxifen in medium 0 µM): 89.6
viability inhibition at highest dose ([2]; 4-OH-tamoxifen in medium 1 µM): 94.5
viability inhibition at highest dose [3]: 42.4
viability inhibition at highest dose [4]: 95.6
viability inhibition at highest dose [5]: 54.5
viability inhibition at highest dose [6]: 48.3
viability inhibition at highest dose [7]: 94.4
viability inhibition at highest dose ([8]; 4-OH-tamoxifen in medium 0 µM): 42.7
viability inhibition at highest dose ([8]; 4-OH-tamoxifen in medium 1 µM): 51.5
viability inhibition at highest dose [9]: 76.8
viability inhibition at highest dose ([10]; 4-OH-tamoxifen in medium 0 µM): 95.1
viability inhibition at highest dose ([10]; 4-OH-tamoxifen in medium 1 µM): 94.8
viability inhibition at highest dose ([11]; 4-OH-tamoxifen in medium 0 µM): 93.9
viability inhibition at highest dose ([11]; 4-OH-tamoxifen in medium 1 µM): 97

COc1cc2nccc(Oc3ccc(NC(=O)C4(C(=O)Nc5ccc(F)cc5)CC4)cc3)c2cc1OC [Cabozantinib (XL184)] (drug 1000 nM)
viability inhibition at highest dose [1]: 2.69
viability inhibition at highest dose ([2]; 4-OH-tamoxifen in medium 0 µM): 5.85
viability inhibition at highest dose ([2]; 4-OH-tamoxifen in medium 1 µM): 11.3
viability inhibition at highest dose [3]: 6.25
viability inhibition at highest dose [4]: 22.4
viability inhibition at highest dose [5]: 2.11
viability inhibition at highest dose [6]: 1.76
viability inhibition at highest dose [7]: 7.72
viability inhibition at highest dose ([8]; 4-OH-tamoxifen in medium 0 µM): -14.6
viability inhibition at highest dose ([8]; 4-OH-tamoxifen in medium 1 µM): -2.98
viability inhibition at highest dose [9]: 10.4
viability inhibition at highest dose ([10]; 4-OH-tamoxifen in medium 0 µM): -4.29
viability inhibition at highest dose ([10]; 4-OH-tamoxifen in medium 1 µM): -1.77
viability inhibition at highest dose ([11]; 4-OH-tamoxifen in medium 0 µM): -10.4
viability inhibition at highest dose ([11]; 4-OH-tamoxifen in medium 1 µM): 16

CC[C@@]1(O)C(=O)OCc2c1cc1n(c2=O)Cc2cc3ccccc3nc2-1 [Camptothecin] (drug 5000 nM)
viability inhibition at highest dose [1]: 49.6
viability inhibition at highest dose ([2]; 4-OH-tamoxifen in medium 0 µM): 85.5
viability inhibition at highest dose ([2]; 4-OH-tamoxifen in medium 1 µM): 87.2
viability inhibition at highest dose [3]: 54.1
viability inhibition at highest dose [4]: 4.82
viability inhibition at highest dose [5]: 57.9
viability inhibition at highest dose [6]: 49.1
viability inhibition at highest dose [7]: -15.3
viability inhibition at highest dose ([8]; 4-OH-tamoxifen in medium 0 µM): 52.9
viability inhibition at highest dose ([8]; 4-OH-tamoxifen in medium 1 µM): 41.1
viability inhibition at highest dose [9]: 35.6
viability inhibition at highest dose ([10]; 4-OH-tamoxifen in medium 0 µM): 61
viability inhibition at highest dose ([10]; 4-OH-tamoxifen in medium 1 µM): 28.7
viability inhibition at highest dose ([11]; 4-OH-tamoxifen in medium 0 µM): -9.54
viability inhibition at highest dose ([11]; 4-OH-tamoxifen in medium 1 µM): 0.861
